Experiments:
[1] = tested on: INS1 and INS2 mRNA; test: qRT-PCR of insulin genes in Tm-treated INS-1 cells; format: cell-based, rat; conditions: Tm 0.1 μg/mL, 9c 20 μM, 24 h, FIG. 5A, B
Source text: (§1) ER stress also impairs the most important function of β cells: the biosynthesis and secretion of insulin. Multiple steps of insulin synthesis and secretion are impaired under ER stress; they include insulin gene transcription, insulin mRNA stability, protein translation, and the insulin protein secretory process. First, we examined whether compound 9c could rescue Tm-suppressed mRNA levels of insulin genes. […] Second, we examined whether compound 9c affects the expression of β cell transcription factors PDX1 and MafA, which control β cell identity and the expression of insulin genes. Chronic exposure to supraphysiologic concentrations of glucose and its associated ER stress cause the down-regulation of expression of PDX1 and MafA. Consistent with this notion, Tm decreased the levels of PDX1 and MafA mRNA expression levels in INS-1 cells. […] Next, we explored whether compound 9c re-establishes Tm-impaired glucose-stimulated insulin secretion (GSIS).
INS-1 cells were seeded at 4×10^5 cells/well in 6-well plates and treated with compounds for the indicated times. Total RNA was extracted using TRIzol reagent (Invitrogen, Carlsbad, Calif.) according to the manufacturer's protocol, and 2 μg of total RNA was reverse transcribed using a Superscript kit (Invitrogen). […]

[2] = tested on: XBP1s mRNA; test: XBP1 splicing (qRT-PCR and RT-PCR) in Tm-treated INS-1 cells; format: cell-based, rat; conditions: Tm 0.1 μg/mL, 9c 20 μM
Source text: Next, we investigated the mechanism by which 9c protects β cells against ER stress. In response to ER stress, all three branches of the UPR, IRE1α, PERK and ATF6, are activated to either restore cellular homeostasis/survival or lead to cell death, depending on the severity of ER stress. First, we asked whether 9c affects the activation of IRE1α in β cells under ER stress. Activated IRE1α cleaves X-box binding protein-1 (XBP1) mRNA to generate a spliced form (XBP1s) that is translated into a potent transcription factor which controls expression of UPR genes encoding factors involved in ER protein folding and degradation. We therefore determined the effect of 9c on IRE1α-mediated XBP1 splicing in INS-1 cells in the presence of Tm.
(§2) INS-1 cells were seeded at 4×10^5 cells/well in 6-well plates and treated with compounds for the indicated times. Total RNA was extracted using TRIzol reagent (Invitrogen, Carlsbad, Calif.) according to the manufacturer's protocol, and 2 μg of total RNA was reverse transcribed using a Superscript kit (Invitrogen). Real-time PCR was performed in 96-well format using SYBR Select Master Mix (Applied Biosystems, Foster City, Calif.) with an ABI 7500 PCR system (Applied Biosystems). The primer sequences used are shown in U.S. Ser. No. 62/542,408, Aug. 8, […].

[3] = tested on: βTC6 cells; test: βTC6 cell viability after Tm treatment (CellTiter-Glo); format: cell-based; conditions: Tm 0.25 μg/mL, 72 h, FIG. 3B
Source text: To rule out the possibility of an ATP-specific (rather than viability) effect of the compounds, we used the MTT assay, which measures the activity of NAD(P)H-dependent cellular oxidoreductase enzymes, as an orthogonal method to measure cell viability. […] To confirm that the protective effect of 9c on β cells is not INS-1 cell-specific, another β cell line, βTC6, was used. […] To determine whether the protective effect of 9c on β cells is specific to Tm-induced stress, we used another ER stressor, BFA, which inhibits a key guanine nucleotide exchange factor essential for the transport of proteins from the ER to the Golgi, to treat INS-1 cells.
INS-1 cells or βTC6 cells were seeded at 3×10^3 cells/well in a 384-well plate and treated with compounds at the indicated concentrations. After 3 d treatment, the medium was aspirated and 20 μL/well of CellTiter-Glo reagent (Promega, WI, USA) was added for the detection of intracellular ATP levels. Cell viability was measured with an EnVision multilabel plate reader (PerkinElmer, MA, USA).

[4] = tested on: primary human islets; test: Glucose-stimulated insulin secretion in Tm-treated primary human islets; format: cell-based; conditions: Tm 1 μg/mL, 48 h, 20 mM glucose, FIG. 9C
Source text: We determined whether 9c suppresses the apoptosis of primary human β cells induced by Tm treatment as assessed by TUNEL, which detects fragmentation of DNA, a marker of apoptotic cell death. […] Next, we investigated whether 9c restored the Tm-induced insulin secretion defect. […] ER stress induces activation of three branches of UPR (PERK, IRE1α, and ATF6), leading to up-regulation of ATF4, XBP1s, Bip, […], CHOP and eventual activation caspase 3 and cell apoptosis, while diminishing the expression of PDX1, MAFA and insulin genes, leading to β cell dysfunction. Compound 9c protects β cell against ER stress-mediated dysfunction and death by down-regulating ATF4, XBP1s, Bip, GRP94, CHOP, and caspase 3 and up-regulating PDX1, MAFA and insulin genes.
(§3) INS-1 or primary human islet cells were plated in 96-well plates. The second day, Tm and compound 9c were added and maintained for 24 h (INS-1) or 48 h (human islets). […] The secreted insulin was measured with insulin ELISA kits (for mouse insulin from Millipore and for human insulin from LifeTech). Cells were lysed with RIPA buffer (50 mM Tris HCl pH 7.4, 1% NP-40, 0.25% sodium deoxycholate, 150 mM NaCl), and total cellular protein was determined with a Bradford protein assay. […]

[5] = tested on: INS-1 cells; test: Glucose-stimulated insulin secretion in Tm-treated INS-1 cells; format: cell-based, rat; conditions: Tm 0.1 μg/mL, 24 h, 25 mM glucose, FIG. 5E
Source text: as §1
as §3, with “plates.” for “plates. The second day, Tm and compound 9c were added and maintained for 24 h (INS-1) or 48 h (human islets).”

[6] = tested on: Bip and GRP94 mRNA; test: qRT-PCR of Bip and GRP94 in Tm-treated INS-1 cells; format: cell-based, rat; conditions: Tm 0.1 μg/mL, 9c 20 μM, FIG. 7A, B
Protocol: We then asked whether 9c affects the activation of ATF6 in β cells under ER stress. Activated ATF6 acts as a homodimer or as an ATF6-XBP1s heterodimer to control the up-regulation of select UPR target genes including the chaperone proteins BiP and GRP94. We evaluated the effect of 9c on the mRNA levels of chaperones Bip and GRP94 in β cells in the presence of Tm.
as §2

COc1ccc(CNc2nc(N3CCCCC3CO)nc3ccccc23)cc1 (racemic) [Compound 9c, (1-(4-((4-methoxybenzyl)amino)quinazolin-2-yl)piperidin-2-yl)methanol]
mRNA levels of insulin genes INS1 and INS2 [1]: completely rescued | XBP1s mRNA (qRT-PCR) ([2]; FIG. 6A): suppressed | XBP1s mRNA (RT-PCR, electrophoretic separation of spliced and unspliced forms) ([2]; FIG. 6B): inhibits the Tm-induced generation of XBP1s mRNA | viability of βTC6 cells (intracellular ATP level) [3]: rescued the viability of βTC6 cells in a dose-dependent manner | glucose-stimulated insulin secretion (GSIS) [4]: significantly reversed this effect and restored the Tm-impaired GSIS | glucose-stimulated insulin secretion (GSIS) [5]: significantly rescued the GSIS | Bip and GRP94 mRNA levels [6]: almost completely suppressed

From patent publication US10815219B2, “2,4-diaminoquinazoline derivatives for inhibiting endoplasmic reticulum (ER) stress” (The Board of Regents of the University of Oklahoma, priority 2017, dated 2020)
